Test results: PMC10681895, “Dasatinib anhydrate containing oral formulation improves variability and bioavailability in humans” (Leukemia, 2023)
Read-outs that look alike come from different tables or passages of the source.

What was measured:
[1] = Bioavailability of anhydrous vs monohydrate form of dasatinib by gastric pH (data on file); assay type: in vivo, human
[2] = Intrinsic dissolution rate, rotation disk (Sirius inForm), acetate/phosphate buffer pH 4.5; settings: for intrinsic dissolution rate: acetate buffer pH 4.5, 37 °C, 100 rpm
[3] = Drug-drug interaction study with omeprazole (staggered approach), pharmacokinetics; settings: human, plasma, oral
Method: The DDI study was a single-sequence, 2-period, open-label study to investigate the effects of an oral proton pump inhibitor (PPI) omeprazole (Helicid 40 mg capsules, Zentiva, k.s., Czech Republic) administered QD for 5 days on the pharmacokinetics (PK) of T when ingested 2 h prior to the last omeprazole dose (‘staggered approach’). All subjects received T alone in the first period and T under pre-treatment with omeprazole in the second period.
Subjects fasted for at least 10 h prior to dosing and no food was provided until 4 h after the dose, after which a standardized breakfast was served. […]
The plasma concentration-time profiles and pharmacokinetic parameters determined for dasatinib included maximum plasma concentration (Cmax), time to reach the maximum plasma concentration (Tmax), area under the plasma concentration-time curve from time zero to the time of the last quantifiable concentration (AUC0-t, measured by linear trapezoid method), AUC from time zero to infinity (AUC0-inf), terminal elimination half-life (thalf). The pharmacokinetic parameters were determined by non-compartmental methods using Phoenix WinNonlin, version 8.1 (Certara, USA).
Arithmetic mean and standard deviation were summarized for the main pharmacokinetic parameters. For Tmax, median and range were determined. […]

[4] = design: method as in PMID 19395585; settings: cited from earlier work
[5] = cited from earlier work
[6] = Safety and tolerability, drug-drug interaction study (adverse events, CTC grade); assay type: in vivo, human; settings: after dasatinib alone
Method: Safety was evaluated through assessment of adverse events, clinical and laboratory test results, physical examination, and concomitant medication usage.

[7] = tested on: non-small-cell lung carcinoma; design: method as in PMID 25246385; settings: cited from earlier work
[8] = design: method as in PMID 15032311, PMID 15568890; settings: oral; cited from earlier work
[9] = without PPI or H2-receptor antagonists

SMILES: Cc1nc(Nc2ncc(C(=O)Nc3c(C)cccc3Cl)s2)cc(N2CCN(CCO)CC2)n1 [dasatinib anhydrate, dasatinib]
- increase of bioavailability compared with monohydrate form ([1]; normogastric population): approximately 20%
- fold higher bioavailability compared with monohydrate form ([1]; subjects with gastric pH >4 (data on file)): about 3.5 fold
- fold higher intrinsic dissolution rate compared to monohydrate form ([2]; acetate buffer pH 4.5): more than 80 fold
- intrinsic dissolution rate ([2]; listed as Anhydrous polymorph of dasatinib): 1606 mcg/min/cm^2
- fold difference in aqueous solubility compared with monohydrate form ([2]; pH of 4.5): > 80 fold
- Tmax [3]: 1.25 h
- Tmax ([3]; 110.6 mg): 0.83 h

SMILES: Cc1nc(Nc2ncc(C(=O)Nc3c(C)cccc3Cl)s2)cc(N2CCN(CCO)CC2)n1 [dasatinib monohydrate, dasatinib]
- solubility ([4]; pH 2.6): 18.4 mg/mL
- solubility ([4]; pH 4.28): 0.205 mg/mL
- solubility ([4]; pH 6.99): < 0.001 mg/mL
- intrinsic dissolution rate ([2]; listed as monohydrate form): 19 mcg/min/cm^2

SMILES: Cc1nc(Nc2ncc(C(=O)Nc3c(C)cccc3Cl)s2)cc(N2CCN(CCO)CC2)n1 [dasatinib]
- decrease of AUC ([5]; co-administration of dexamethasone, according to the label): approximately 25%
- AUC decrease ([5]; co-administration with antacids): ~ 55%
- prevention of dasatinib AUC decrease induced by rabeprazole ([5]; co-administration with betaine hydrochloride): 78%
- AUC decrease ([5]; co-administration with famotidine): ~ 60%
- reduction in dasatinib bioavailability ([5]; dasatinib administered 22 h after the last dose of the PPI): > 40%
- Chills, number of adverse effects ([6]; CTC Grade 1): 1
- Fever, number of adverse effects ([6]; CTC Grade 1): 0
- Headache, number of adverse effects ([6]; CTC Grade 1): 1
- Nausea, number of adverse effects ([6]; CTC Grade 1): 3
- Neck exanthema, number of adverse effects ([6]; CTC Grade 1): 0
- Palmar exanthema, number of adverse effects ([6]; CTC Grade 1): 0
- Vomiting, number of adverse effects ([6]; CTC Grade 1): 1
- Weakness, number of adverse effects ([6]; CTC Grade 1): 2
- Chills, number of adverse effects ([6]; CTC Grade 2): 0
- Fever, number of adverse effects ([6]; CTC Grade 2): 1
- Headache, number of adverse effects ([6]; CTC Grade 2): 6
- Nausea, number of adverse effects ([6]; CTC Grade 2): 1
- Neck exanthema, number of adverse effects ([6]; CTC Grade 2): 1
- Palmar exanthema, number of adverse effects ([6]; CTC Grade 2): 1
- Vomiting, number of adverse effects ([6]; CTC Grade 2): 0
- Weakness, number of adverse effects ([6]; CTC Grade 2): 0

SMILES: C#Cc1cccc(Nc2ncnc3cc(OCCOC)c(OCCOC)cc23)c1 [erlotinib]
- median progression free survival ([7]; with co-administration of PPI or H2-receptor antagonists, p < 0.001): 1.4 months
- median overall survival ([7]; with co-administration of PPI or H2-receptor antagonists, p = 0.003): 12.9 months
- median overall survival [7, 9]: 16.8 months
- median progression free survival [7, 9]: 2.3 months

SMILES: O=C1NC(=O)C(c2ccccc2)(c2ccccc2)N1 [phenytoin]
- absolute bioavailability [8]: > 90%
